Laboratory results from US12357608B2, “Methods and compositions utilizing RRx-001 combination therapy for radioprotection” (priority 2018, dated 2025).

Tested on: CD2F1 male mice
Experiment: Survival following lethal total body irradiation (TBI)
Format: in vivo
Experimental: In this Example, the effects of systemic administration of RRx-001 on survival in response to a lethal dose of radiation was assayed in mice. CD2F1 male mice 9.5-11 weeks old were administered a single dose of RRx-001 by intraperitoneal (IP) injection 24 hours prior to a lethal radiation dose. 24 mice received 10 mg/kg RRx-001 (formulated in 5% DMSO in sterile H2O) and 24 mice received the vehicle control (5% DMSO) in sterile H2O only).
The mice were subjected to total body irradiation (TBI) with 9.35 Gy (LD70/30) at 0.6 Gy/min using High-level Cobalt-60. Unanesthetized mice were placed in well-ventilated Plexiglas restrainers and irradiated bilaterally. Sham-irradiated mice were also placed in identical Plexiglas restrainers and kept in a room shielded from irradiation at the same time. In each experiment, the dose to the abdominal cores of the animals was delivered at a dose rate of approximately 0.6 Gy/min. Dosimetry was performed prior to the irradiation of the animals using the highly accurate alanine/electron spin resonance (ESR) dosimetry system (American Society for Testing and Materials, Standard E 1607) to measure dose rates (to water) in the cores of acrylic mouse phantoms, which were located in the compartments of the exposure rack. A calibration curve based on standard alanine calibration dosimeters provided by the National Institute of Standards and Technology (NIST, Gaithersburg, MD) was used to measure the doses. The accuracy of the dose rate calibrations has been verified several times using the services of the National Physics Laboratory (UK National Standards Laboratory, London, UK) and the M.D. Anderson Cancer Center (Houston, TX). The corrections applied to the measured dose rates in the phantoms were for a small difference in the Co-60 energy between the mass energy-absorption coefficients for soft tissue and water, as well as source decay. The radiation field was uniform within ±1.2%.
Mice were monitored at least twice a day for 30 days post-irradiation. During the critical period (days 10-20), mice were monitored at least three times a day with no more than 10 hours between observations. Mice displaying any signs of discomfort received food in their cage as a wet mash. Mice displaying overt dyspnea, weight loss, lethargy, or other markers of moribundity and appearing to be in distress were humanely euthanized in a separate room using carbon dioxide gas followed by cervical dislocation after breathing stopped as a confirmatory method of euthanasia. This experiment was repeated for a total of n=24 mice per group.
Survival curves were estimated using the Kaplan-Meier method and were compared using a two-sided log-rank test at the 0.05 significance level. P-values were considered statistically significant if less than 0.05.

With `O=C(CBr)N1CC([N+](=O)[O-])([N+](=O)[O-])C1` [RRx-001, 2-bromo-1-(3,3-dinitroazetidin-1-yl)ethan-1-one] the “increase in mean survival time compared to the vehicle control” value (10 mg/kg 24 hours prior to lethal TBI) was 7 days, the increase in survival (10 mg/kg 24 hours prior to lethal TBI, vs vehicle control) was 33.4% and the “survival times, means±standard errors” value (10 mg/kg IP 24 hours prior to 9.35 Gy TBI, 30-day observation, N=24/group) was 27.2 ± 1.1 days. For the same molecule, the “reduction in the 30-day death risk” value (one dose 10 mg/kg IP 24 hours prior to 9.35 Gy (LD70/30) TBI, vs vehicle control irradiated mice) was ~33.4%.
